This is an account of results in publication PMC6423783, “Flavokawain B targets protein neddylation for enhancing the anti-prostate cancer effect of Bortezomib via Skp2 degradation” (Cell Communication and Signaling : CCS, 2019).

The target of this experiment is T1, NAE1 regulatory subunit APP-BP1 (NEDD8 activating enzyme, NAE) (Homo sapiens, UniProt Q13564).
T1 construct: APP-BP1/UBA3 (NEDD8 ligase E1); with UBA3
T1 sequence (Q13564 2-534): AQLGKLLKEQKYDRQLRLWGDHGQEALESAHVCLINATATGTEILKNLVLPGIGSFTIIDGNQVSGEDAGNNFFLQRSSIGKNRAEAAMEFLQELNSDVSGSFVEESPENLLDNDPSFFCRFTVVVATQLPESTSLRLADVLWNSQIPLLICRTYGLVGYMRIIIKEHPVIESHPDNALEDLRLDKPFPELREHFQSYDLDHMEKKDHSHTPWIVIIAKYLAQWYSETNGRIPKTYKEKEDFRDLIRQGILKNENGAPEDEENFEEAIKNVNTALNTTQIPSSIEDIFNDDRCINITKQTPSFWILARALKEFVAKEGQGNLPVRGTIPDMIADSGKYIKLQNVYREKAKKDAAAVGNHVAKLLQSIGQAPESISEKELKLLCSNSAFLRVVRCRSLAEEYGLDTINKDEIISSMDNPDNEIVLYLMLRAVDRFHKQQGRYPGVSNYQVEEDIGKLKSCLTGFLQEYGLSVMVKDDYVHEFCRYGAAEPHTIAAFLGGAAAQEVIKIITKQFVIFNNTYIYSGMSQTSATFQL
T1 sequence (Q8TBC4 2-463 partner): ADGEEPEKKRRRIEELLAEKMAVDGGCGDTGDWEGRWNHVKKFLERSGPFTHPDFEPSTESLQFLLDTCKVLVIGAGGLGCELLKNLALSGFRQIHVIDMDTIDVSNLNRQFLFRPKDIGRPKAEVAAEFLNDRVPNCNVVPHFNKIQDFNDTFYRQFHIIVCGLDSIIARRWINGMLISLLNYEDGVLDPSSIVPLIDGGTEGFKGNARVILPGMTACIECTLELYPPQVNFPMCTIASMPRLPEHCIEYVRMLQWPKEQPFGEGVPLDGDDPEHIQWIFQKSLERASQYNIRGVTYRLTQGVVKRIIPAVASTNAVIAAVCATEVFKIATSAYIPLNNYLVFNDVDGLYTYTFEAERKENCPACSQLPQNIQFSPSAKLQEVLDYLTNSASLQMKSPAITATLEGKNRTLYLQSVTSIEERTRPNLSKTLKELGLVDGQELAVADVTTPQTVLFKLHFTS
Description: in vitro NEDD8 initiation conjugation assay (APP-BP1/UBA3, UbcH12, NEDD8; Western readout), supported by CETSA of APP-BP1 in PC3 cells. The class given is biochemical. The method, then: in vitro NEDD8 initiation conjugation assay (APP-BP1/UBA3, UbcH12, NEDD8; Western readout), supported by CETSA of APP-BP1 in PC3 cells on NAE1 regulatory subunit APP-BP1 (NEDD8 activating enzyme, NAE) | The relative density of NEDD8-Ubc12 to the control was analyzed to have an estimated IC50 of approximately11μM

As usually defined, the IC50 is the point on the concentration scale where inhibition reaches its midpoint. A low value points to greater potency. On to `COc1cc(O)c(C(=O)/C=C/c2ccccc2)c(OC)c1` [FKB, Flavokawain B], for which the IC50 is ~11 µM.
